{"source": "patent US20160228444A1", "about": "“NUCLEOSIDE ANALOGS AND USES THEREOF” (Ramot at Tel-Aviv University Ltd., priority 2015, published 2016)", "key": {"[1]": {"system": "MCP-1", "test": "MCP-1 gene expression in MDA-MB-231 cells (qRT-PCR)", "type": "cell-based, human", "details": "combination with paclitaxel, FIG. 7C", "method": "(§1) The effect of AN446 on inflammation-associated pathways was evaluated in the monocytic THP1 cell line and in the MDA-MB-231 breast carcinoma cell line. Supernatants of treated THP1 cells were collected and IL-6, IL-10 and TNF-α concentrations were quantified by ELISA (R&D systems). TLR4 expression in THP1 cells was assessed using fluorescent anti-TLR4 antibodies and FACS analysis. In addition, gene expression for MCP-1, TNF-α and TLR4 in MDA-MB-231 was evaluated by qRT-PCT, following treatment with AN446 and/or paclitaxel."}, "[2]": {"system": "VEGF", "test": "VEGF immunohistochemistry in tumor and heart of xenograft mice", "type": "in vivo", "details": "FIG. 4F", "method": "The pro-angiogenic factors basic fibroblast growth factor (bFGF) and vascular endothelial growth factor (VEGF) are potent angiogenic stimulators. The expression of bFGF in the tumor and in the heart was evaluated by Western blot and qRT-PCR analyses and expression of VEGF by IHC."}, "[3]": {"system": "murine mammary carcinoma 4T1", "test": "FACS viability, annexin V-FITC / PI", "type": "cell-based", "details": "AN446 24 h; 200 nM Dox 5 h; combination compared to Dox alone; FIG. 1C", "method": "(§2) Cell viability by flow cytometry analysis (FACS) analysis was determined using the Mebcyto apoptosis kit (MBL-Japan). The cell lines 4T1, U251 (2×10^5 cells/well), astrocytes and the cardiomyoblastic cell line H9C2 (5×10^5 cells/well) were seeded in six-well plates. Following treatment they were trypsinized, washed with PBS, resuspended in […] of binding buffer and double-stained with annexin V-FITC and propidium iodide (PI) according to the manufacturer's instructions. The stained cells were subjected to FACS analyses (Calibur cytometer, Becton Dickinson) where 30,000 cells were allowed to flow for each determination point and the percentage of cells in each state (viability or death) was defined by their distribution in fluorescence dot-plots using WinMdi 2.8 software (Scripps Research Institute, La-Jolla, USA).\n(§3) The apoptotic effect of AN446, Dox and their combination was evaluated in U251 and 4T1 cancer cells, and in the non-cancerous rat cardiomyoblast cell line (H9C2) and in primary rat astrocytes, using procedures previously described for AN7 [Tarasenko et al., Invest New Drugs 2012, 30:130-143]."}, "[4]": {"system": "U251 MG human glioma cells", "test": "FACS viability, annexin V-FITC / PI", "type": "cell-based", "method": "as §2, §3"}, "[5]": {"system": "pH2AX in H9C2 cells", "test": "Phosphorylated H2AX (Western blot), 24 or 48 hours", "type": "cell-based, rat", "details": "FIG. 13B", "method": "The effects of the abovementioned HDAC inhibitors on DNA damage and repair were then assessed by evaluating changes in levels of phosphorylated histone H2AX (pH2AX), a marker of DNA double-strand breaks, and Rad51, a marker of homologous recombination-guided DNA repair of double-strand breaks [Nagathihalli & Nagaraju, Biochim Biophys Acta 2011, 1816:209-218; Rogakou et al., J Biol Chem 1998, 273:5858-5868].\nU251 and H9C2 cells were treated with the HDAC inhibitors for 24 or 48 hours, and then subjected to Western blot analysis."}, "[6]": {"system": "U251 cells", "test": "Hoechst viability assay 72 h / median-effect combination study", "details": "Homo sapiens, U-251, 72 h, read-out: IC50 value for viability in U251 cells after 72 hours", "protocol": "Hoechst assay: 22RV-1, MCF-7, MCF-7DX, 4T1, U251, and T47D cells (3×10^3 cells/well) and NCI-N87 (8×10^3 cells/well) were seeded in tissue culture in growth medium for 24 h in 96-well plates (in triplicate) and then exposed to different concentrations (titration) of the tested drug for 72 h at 37° C. The plates were then rinsed with PBS and fixed with 100 ml of 70% ethanol for 30 min. […] The fluorescence was measured (excitation at 390 nm and emission at 460 nm) with a Synergy III Fluorometer-Elisa reader (BioTek Instruments, Inc. Germany).\nThe Median Effect Analysis (MEA) for a constant combination ratio was used for drugs interaction and the combination index (CI) determination.\nThe average values of three independent experiments were calculated and analyzed with CalcuSyn software."}, "[7]": {"system": "H9C2 cells", "test": "ROS production (DCF-DA, flow cytometry)", "type": "cell-based, rat", "details": "FIG. 1D", "method": "(§4) ROS were measured in live cells by monitoring the oxidation of DCF-DA (a cell-permeable probe), which undergoes deacetylation by cellular esterases and fluoresces upon oxidation by ROS. U251 MG (2×10^5 cells/six-well plates), astrocytes or H9C2 (5×10^5 cells/six-well plates) were treated as specified, incubated with […] DCF-DA for 30 min at 37° C., washed with PBS and analyzed (10^4 cells) by flow cytometry using a 488 nm excitation beam (Calibur cytometer, Becton Dickinson). The percentage of cells stained positively for DCF was determined with CellQuest software (BD Biosciences, San Jose, Calif., USA).\n(§5) To gain insights into the mechanism of cell-type specific effects, ROS production in cancer cells and in non-cancer cells after treatment for 5-6 h with AN446, Dox and AN446+Dox, were assessed by staining the cells with the membrane-permeable fluorescent dye DCF-DA."}, "[8]": {"system": "astrocytes", "test": "ROS production (DCF-DA, flow cytometry)", "type": "cell-based, rat", "details": "FIG. 1D", "method": "as §4, §5"}, "[9]": {"system": "IL-6", "test": "IL-6 in supernatant of LPS-treated THP1 cells (ELISA)", "type": "cell-based", "details": "1 μg/ml LPS, AN446 20 or 40 μM, FIG. 7B", "method": "as §1"}, "[10]": {"system": "acetylated H3 histone in U251 glioblastoma cells", "test": "Histone H3 acetylation (Western blot), 24 hours", "type": "cell-based, human", "details": "FIG. 12", "method": "The effects of the abovementioned HDAC inhibitors on histone acetylation were also compared. U251 and H9C2 cells were treated with the HDAC inhibitors for 24 hours (according to procedures described hereinabove with respect to FIGS. 9 and 10), and then subjected to Western blot analysis."}, "[11]": {"system": "U251 human glioblastoma xenograft", "test": "Glioblastoma xenograft model (survival, body weight, tumor volume, tumor weight, Ki-67)", "details": "for tumor volume of vehicle-treated group relative to treated group: from day 11, FIG. 3C", "protocol": "Xenograft of glioblastoma: 8- to 10-week-old male Hsd athymic FOXN (Harlan, Jerusalem, Israel) were inoculated sc in the flanks with 5×10^6 U251 cells. Tumor length (L) and width (W) were measured with a caliper twice weekly. Tumor volumes were calculated according to the formula: (L×W2)/2. When the tumor was established (volume of 50-100 mm^3) the mice were randomly divided into six groups treated with: vehicle control (saline); ip Dox 4 mg/kg once weekly; po AN446 25 mg/kg thrice a week; po AN7 50 mg/kg thrice a week; combination of AN446+Dox (4 mg/kg ip Dox once a week and 25 mg/kg po AN446 thrice a week); AN7+Dox (4 mg/kg ip Dox once a week and 50 mg/kg po AN7 thrice weekly). Untreated, non-bearing tumor naive mice were maintained under the same conditions. The experiment was terminated after 25 treatment days, the mice were sacrificed under CO2 and their tumors and hearts were removed, weighed and divided into parts dedicated for immunohistochemistry (IHC) and the rest were frozen (−80° C.) for Western blot and Quantitative PCR (qRT-PCR) analyses.\nInactivation of avidin-biotin nonspecific binding was prevented by a blocking kit, according to the manufacturer's protocol (Vector Laboratories). […] The secondary antibody was biotin conjugated goat anti-rabbit or anti-mouse IgG. Slides were then stained with the ABC peroxidase system, developed with diaminobenzidine (DAB) (Vector Laboratories) and counterstained with hematoxylin (Bio-Optica, Milano, Italy). The slides were examined using an Olympus BX 52 light microscope, and images were taken with an Olympus DP50 digital camera system.\nMice were implanted subcutaneously with U251 cells and when the tumors reached 50-100 mm^3 treatments were initiated. Survival was evaluated by the Kaplan-Meier end-product analysis, where treatment failure (the experimental end points) was a loss of ˜20% body weight, or a tumor volume of >1 cm^3."}, "[12]": {"system": "primary rat astrocytes", "type": "cell-based", "details": "noncancerous cells; combination compared to Dox alone; FIG. 1C", "method": "as §2, §3"}, "[13]": {"system": "HUT-78 CTCL cells", "test": "Median-effect drug interaction, MTT viability, 72 h", "type": "cell-based, human", "details": "Homo sapiens", "method": "Cell viability was determined by an MTT cell viability assay after 48 hours. MyLa cells (10^4 cells/well), Hut78 cells (5×10^3 cells/well) and normal PBLs (10^5 cells/well) were seeded in 96 well-plates. The PBLs were activated with 40 μg/10^6 cells of phytohemagglutinine (PHA) for 24 h before the experiment.\nThe ratios of the drug combination were based on the ratio of their IC50 of each drug alone. Cell viability was determined by MTT assay, as described hereinabove. The drugs were added to the cells and incubated for 72 h."}}, "note": "Entries after “also recorded” stand apart in the source; their conditions may differ. Like-named read-outs stand apart in the source and are kept apart here."}
{"molecule": "CCCC(CCC)C(=O)Nc1nc2c(ncn2COCCOC(=O)C(CCC)CCC)c(=O)[nH]1", "note": "[AN446, N-valproyl-9-(2-valproyloxy)ethoxymethyl-guanine]", "values": [{"measurement": "paclitaxel-induced increase in expression of MCP-1", "setting": "[1]", "value": "significantly attenuated"}, {"measurement": "VEGF expression in the heart", "setting": "[2]", "value": "elevated"}, {"measurement": "viability / mortality of 4T1 cells", "setting": "[3]", "value": "significantly enhanced the mortality"}, {"measurement": "cell death in U251 glioblastoma cells", "setting": "[4]; 24, 48 or 72 hours, each inhibitor at its U251 IC50, FIG. 9, listed as valprostat", "value": "effective at inducing cell death in glioblastoma cells after 24, 48 or 72 hours; also recorded: particularly more effective than the other tested HDAC inhibitors at inducing cell death after 24 hours"}, {"measurement": "viability / mortality of U251 cells", "setting": "[4]; AN446 24 h, 200 nM Dox 5 h, combination compared to Dox alone, FIG. 1C", "value": "significantly enhanced the mortality"}, {"measurement": "therapeutic index (ratio of cancer cell mortality to cardiomyoblast mortality)", "setting": "[4]; U251 vs H9C2, at each time point (24, 48, 72 hours), FIG. 11", "value": "more than 2"}, {"measurement": "pH2AX levels in cardiomyocytes (H9C2)", "setting": "[5]", "value": "did not increase pH2AX levels"}, {"measurement": "IC50", "setting": "[6]", "value": 20, "unit": "µM"}, {"measurement": "ROS production and mortality in Dox-treated H9C2 cells", "setting": "[7]; added to 200 nM Dox", "value": "attenuated ROS production and mortality"}, {"measurement": "ROS production in H9C2 cells", "setting": "[7]; single agent", "value": "did not induce ROS production"}, {"measurement": "ROS production and mortality in Dox-treated astrocytes", "setting": "[8]; added to 200 nM Dox", "value": "attenuated ROS production and mortality"}, {"measurement": "ROS production in astrocytes", "setting": "[8]; single agent", "value": "did not induce ROS production"}, {"measurement": "LPS-induced expression of IL-6", "setting": "[9]", "value": "suppressed"}, {"measurement": "histone acetylation in U251 cancer cells", "setting": "[10]", "value": "increased histone acetylation considerably"}, {"measurement": "survival of mice when added to Dox treatment", "setting": "[11]; added to Dox 4 mg/kg ip once a week, day 25, FIG. 3A", "value": 80, "unit": "%"}, {"measurement": "body weight loss when added to Dox treatment", "setting": "[11]; added to Dox 4 mg/kg, FIG. 3B", "value": "significant attenuation of body weight loss"}, {"measurement": "Ki-67 positive (proliferating) cells in tumors", "setting": "[11]; in combination with Dox, FIG. 3F", "value": "reduced the proliferating cells to a level significantly lower than any of the single drug treatments"}, {"measurement": "tumor volume of vehicle-treated group relative to treated group", "setting": "[11]; in combination with Dox", "value": 3, "unit": "fold"}, {"measurement": "Ki-67 positive cells in tumors", "setting": "[11]; single agent vs vehicle, FIGS. 3E, 3F", "value": "considerably more Ki-67 positive cells were detected in tumors of the vehicle-treated mice"}, {"measurement": "tumor volume of vehicle-treated group relative to treated group", "setting": "[11]; single agent", "value": 2, "unit": "fold"}, {"measurement": "survival of mice until end of experiment (day 25)", "setting": "[11]; single agent: AN446 25 mg/kg or AN7 50 mg/kg po thrice weekly, Dox 4 mg/kg ip once a week, FIG. 3A", "value": 100, "unit": "%"}, {"measurement": "viability / mortality of astrocytes", "setting": "[12]", "value": "did not substantially affect the viability"}, {"measurement": "IC50", "setting": "[13]; HuT78, HUT-78, single agent, Table 2", "value": 28, "unit": "µM"}, {"measurement": "IC50", "setting": "[13]; HuT78, read-out: com IC50, HUT-78, in combination with Dox", "value": 11, "unit": "µM"}]}
